Patent US20220062317A1, “NA+/K+ ATPASE INHIBITORS FOR USE IN THE PREVENTION OR TREATMENT OF METASTASIS” (UNIVERSITÄT BASEL, priority 2018, published 2022)
Several values for one entry are separate records, joined by “and”; a condition that tells them apart may be missing. Identical values can stand only once.

Tests used:
[1] = tested on: BRx50 CTC cell line; assay: 17-day treatment, WGBS and i-cisTarget analysis of DMRs that gain methylation; assay type: cell-based, human; settings: 20 nM
Experimental: (§1) In order to assess the effect of clustering on DNA methylation patterns and proliferation signature directly BR16 and BRx50 cell lines were cultured for 17 days to ensure that at least 4 divisions would take place. This is to allow proper time for DNA methylation remodeling to take place.
(§2) Under these conditions, for both CTC derived cell lines, a subset of cluster-associated hypomethylated DMRs from patient and xenografts regain ≥20% methylation.
(§3) Proteinase K digestion and bisulfite treatment was performed according to manufacturer's instructions for EZ DNA Methylation Direct Kit (Zymo, Cat #D5020). Bisulfite-treated DNA was eluted using 9 μl of Elution Buffer and used for library generation with TruSeq DNA methylation kit (Illumina, Cat #EGMK91396) according to manufacturer's instructions. For amplification, 18 cycles were performed using Failsafe Enzyme (Illumina, Cat #FSE51100) and indexes were introduced with Index Primers' Kit (Illumina, Cat #EGIDX81312). Library purification was performed using Agencourt AMPure XP beads at a ratio of 1:1 according to manufacturer's instructions. To avoid DNA loss during pipetting steps, Corning DeckWork low binding barrier pipet tips were used (Sigma, Cat #CLS4135-4X960EA). Library concentration was estimated using Qubit DS DNA HS Assay Kit according to manufacturer's instructions (Invitrogen, Cat #Q32854).
(§4) An enrichment score (ES) indicates the over- or underrepresentation of a certain object within a sample of many objects (=enrichment). […] A negative enrichment score indicates the opposite, namely that a feature is less present than to be expected by the values of other features in the sample. […] An enrichment score can be normalized by dividing a specific ES by the mean of the enrichment scores for all objects in the dataset to yield a normalized enrichment score (NES). Normalization of the enrichment score accounts for differences in gene set size and in correlations between gene sets and the expression dataset; therefore, a normalized enrichment scores (NES) can be used to compare analysis results across gene sets. Only TFBS with a NES score […] shown in the analysis.

[2] = tested on: BR16 CTC cell line; assay: as above; assay type: cell-based, human; settings: 20 nM
Experimental: as §1, §2, §3, §4

[3] = tested on: BR16 cells; assay: Tail vein injection of in vitro pre-treated BR16 cells, metastasis seeding; assay type: in vivo, NSG mice
Experimental: To test whether ouabain and digitoxin would also enable CTC clusters disruption in vivo, the inventors took a dual approach. First, the inventors tested whether a 17-day in vitro treatment with ouabain and digitoxin would translate into a reduced ability of the treated cells to efficiently seed metastasis in untreated mice (FIG. 7A). To this end, upon treatment, BR16 cells stably expressing GFP-luciferase were injected into the tail vein of NSG mice and noninvasively monitored through luminescence imaging for their ability to seed and propagate metastatic lesions.
For tail vein experiments, NOD SCID Gamma (NSG) mice (Jackson Labs) were injected with 1×10^6 BR16-mCherry cells resuspended in 100 μl D-PBS and monitored with IVIS Lumina II (Perkin Elmer). For CTC xenograft mouse model isolation, 1×10^6 LM2-GFP, 1×10^6 BRx50-GFP or 1×10^6 BR16-GFP cells were resuspended in 100 μl of 50% Cultrex PathClear Reduced Growth Factor Basement Membrane Extract (R&D Biosystems, Cat #3533-010-02) in D-PBS and injected orthotopically in NSG mice. Blood draw was performed 4-5 weeks after tumor onset for LM2 cells, 5-6 months after tumor onset for BR16 and 6-7 months after tumor onset for BRx50 cells.

[4] = tested on: BRx50 human CTC-derived cells; assay: FDA-approved compound screen for CTC cluster dissociation (high content imaging); assay type: cell-based; settings: even at lowest concentration tested (0.1 μM)

**Q.** What does the source list for `C[C@@H]1O[C@@H](O[C@H]2C[C@@H](O)[C@]3(CO)[C@H]4[C@H](O)C[C@]5(C)[C@@H](C6=CC(=O)OC6)CC[C@]5(O)[C@@H]4CC[C@]3(O)C2)[C@H](O)[C@H](O)[C@H]1O` [ouabain, Ouabain]?
**A.** NES score of TFBS BCL11A in DMRs with ≥20% gain in methylation [1]: 3.8 and 3.69; NES score of TFBS FOS in DMRs with ≥20% gain in methylation [1]: 3.91; NES score of TFBS FOXG1/O1 in DMRs with ≥20% gain in methylation [1]: 3.53 and 3.25 and 3.1; NES score of TFBS HMBOX1 in DMRs with ≥20% gain in methylation [1]: 3.35 and 3.30 and 3.22; NES score of TFBS IRX6 in DMRs with ≥20% gain in methylation [1]: 3.8; NES score of TFBS MEIS1 in DMRs with ≥20% gain in methylation [1]: 4.09; NES score of TFBS NANOG in DMRs with ≥20% gain in methylation [1]: 3.61; NES score of TFBS OCT4 in DMRs with ≥20% gain in methylation [1]: 3.42; NES score of TFBS RORA in DMRs with ≥20% gain in methylation [1]: 4.02 and 3.75; NES score of TFBS SIX4/5 in DMRs with ≥20% gain in methylation [1]: 3.87 and 3.65; NES score of TFBS SOX18 in DMRs with ≥20% gain in methylation [1]: 3.11; NES score of TFBS YY2 in DMRs with ≥20% gain in methylation [1]: 3.56; NES score of TFBS ZNF493 in DMRs with ≥20% gain in methylation [1]: 3.12; number of DMRs with ≥20% gain in methylation [1]: (n = 121); NES score of TFBS BDP1 in DMRs with ≥20% gain in methylation ([2]; 17-day treatment): 5.64; NES score of TFBS CEBPD in DMRs with ≥20% gain in methylation ([2]; 17-day treatment): 4.05; NES score of TFBS FOS in DMRs with ≥20% gain in methylation ([2]; 17-day treatment): 7.29 and 6.04; NES score of TFBS FOXG1/O1 in DMRs with ≥20% gain in methylation ([2]; 17-day treatment): 3.74 and 3.39; NES score of TFBS HMBOX1 in DMRs with ≥20% gain in methylation ([2]; 17-day treatment): 3.89; NES score of TFBS HSF1 in DMRs with ≥20% gain in methylation ([2]; 17-day treatment): 3.71; NES score of TFBS IRF4 in DMRs with ≥20% gain in methylation ([2]; 17-day treatment): 3.244; NES score of TFBS IRX3 in DMRs with ≥20% gain in methylation ([2]; 17-day treatment): 3.63; NES score of TFBS IRX6 in DMRs with ≥20% gain in methylation ([2]; 17-day treatment): 3.63; NES score of TFBS KDM5D in DMRs with ≥20% gain in methylation ([2]; 17-day treatment): 3.11; NES score of TFBS MEIS1 in DMRs with ≥20% gain in methylation ([2]; 17-day treatment): 3; NES score of TFBS NANOG in DMRs with ≥20% gain in methylation ([2]; 17-day treatment): 3.349 and 3.28; NES score of TFBS OCT4 in DMRs with ≥20% gain in methylation ([2]; 17-day treatment): 3.2 and 3.13 and 3.204; NES score of TFBS SIX4/5 in DMRs with ≥20% gain in methylation ([2]; 17-day treatment): 6.27 and 6.16; NES score of TFBS SOX2 in DMRs with ≥20% gain in methylation ([2]; 17-day treatment): 4.82 and 4.51 and 4.24 and 3.28; NES score of TFBS SOX18 in DMRs with ≥20% gain in methylation ([2]; 17-day treatment): 3.2; NES score of TFBS SRY in DMRs with ≥20% gain in methylation ([2]; 17-day treatment): 6.46 and 6.36; NES score of TFBS TPPP in DMRs with ≥20% gain in methylation ([2]; 17-day treatment): 3.1; NES score of TFBS YAP5 in DMRs with ≥20% gain in methylation ([2]; 17-day treatment): 3.55 and 3.08; NES score of TFBS YY2 in DMRs with ≥20% gain in methylation ([2]; 17-day treatment): 6.5,; NES score of TFBS ZNF274 in DMRs with ≥20% gain in methylation ([2]; 17-day treatment): 4.59 and 3.01; NES score of TFBS ZNF594 in DMRs with ≥20% gain in methylation ([2]; 17-day treatment): 4.84; number of DMRs with ≥20% gain in methylation ([2]; 17-day treatment): n = (108); gain of methylation in DMRs containing binding sites for stemness-related TFs ([2]; 17 days): simultaneously affecting the binding sites of OCT4, SOX2 and NANOG; expression of cleaved caspase 3 compared to control cells ([3]; cancer cells in lungs, pre-treated cells, day 1): significant increase; ability of BR16 cells to lodge in the lung tissue immediately after injection (bioluminescence flux) ([3]; cells pre-treated 17 days in vitro, 20 nM, tail vein, day 0): did not affect; ability to survive during the first day upon arrival (bioluminescence flux) ([3]; cells pre-treated 17 days in vitro, 20 nM, tail vein, day 1): reduced ability to survive; metastatic outgrowth ([3]; pre-treated cells, no further treatment in vivo, 72 days upon injection): delayed metastatic outgrowth; mean cluster size [4]: significant decrease in mean cluster size
